From US5852015A, “Triazine containing anionic compounds useful as antiviral agents” (American Cyanamid Company, priority 1997, dated 1998) come the findings set out here.

Assay [1] concerns RSV (A2). In words: viral yield reduction assay (growth inhibition), RSV. The assay is classed as cell-based, human respiratory syncytial virus. As to conditions: 4 days; for IC50: human respiratory syncytial virus, 96 h. As for the experimental part:
(§1) The compounds were tested for biological activity using viral yield reduction assays. Host cells (indicated as HF for human foreskin fibroblasts and as vero, the commonly used African green monkey cell line, in Tables 1 and 1a) were plated at 4×10^4 cells/well in cell growth medium with 2% fetal bovine serum or 2% calf serum in 96-well plates (0.1 ml/well) and incubated overnight. The compounds were added to individual wells to give final concentrations ranging from 50 to 0.1 μg/ml in two-fold concentration steps. After 1 hour, virus was added, and the incubation was continued for 4 days with RSV or CMV and for 2 days with HSV. At the end of the experiment, the amount of virus growth was quantitated and the yield reduction at various concentrations of compound was calculated. This allows estimation of the concentration of compound giving 50% reduction in virus growth (IC50).
(§2) Table 1. Fifty percent inhibitory concentrations for growth inhibition
(§3) (yield reduction) and for plaque formation were determined as described i
(§4) the text. The virus strains used were RSV (A2), CMV (Ad169), HSV1
(§5) (Patton). The host cells used were human foreskin fibroblasts (HF) and […]

In another assay the test system is RSV A2. The assay is classed as in vivo, cotton rats. As to conditions: for inhibition of RSV in vivo (summary): cotton rats, all experiments of Table 3.
Assay [2] deals with CMV (Ad169). Kind of assay: viral yield reduction assay (growth inhibition), CMV. As to conditions: Human betaherpesvirus 5, AD169, 96 h, HF cells, 4 days. It is filed as cell-based, human cytomegalovirus. The procedure: as §1, §2, §3, §4, §5
In assay [3] the test system is syncytium formation in cells previously infected with RSV. Kind of assay: syncytium formation in RSV-infected vero cells. It is filed as cell-based, African green monkey. As for the experimental part:
This was done by infecting vero cells at a multiplicity of infection of 3 for 1 hour, then replacing the original medium with fresh medium. After 6 hours incubation, compound was added. After 24 and 48 hours, the infected cells were examined under the microscope to determine the extent of syncytium formation. Differences in the extent of syncytium formation due to the presence of compound were easily recognized and the compounds were easily ranked in terms of potency in this assay. The actual IC50's as judged by this method are approximate. They were 0.3 and 0.05 μg/ml for compounds 16 and 17, respectively.

The next assay relates to viral protein synthesis. In words: viral protein synthesis in infected vero cells (mechanism of action). The assay is classed as cell-based. The procedure: The time in the virus life-cycle when Example 1 exerts its effect was determined to increase understanding of the mechanism of action. This was accomplished by adding and removing the compound at various times relative to infection and assessing the effect on viral protein synthesis. Vero cells were infected on ice for 1 hour, unadsorbed virus was removed, and then the infected cells were incubated at 37° C. for 18 hours (virus adsorption will occur on ice, but fusion will not proceed until the temperature is raised to 18° C. or above). After the 18 hour incubation at 37° C. (when the bulk of ongoing protein synthesis was directed by viral RNAs), ^35 S-methionine was added for 2 hours, the cells were lysed, and the labeled proteins were analyzed on SDS-PAGE gels. The viral N, P, and M proteins were then evident. […] However, when the compound of Example 1 was added even after only 5 minutes incubation at 37° C., viral protein production was unimpeded. Therefore, the process inhibited was the fusion process or some closely succeeding step which is required for later viral gene expression.

Assay [4] deals with RSV (A2). In words: viral plaque reduction assay, RSV A2. The assay is classed as cell-based, human respiratory syncytial virus. As to conditions: Table 1; vero cells. Background: In a plaque reduction assay, fewer plaques than in the control indicate reduced infectivity or spread.
For assay [5], the system named is CMV (Ad169). In words: viral plaque reduction assay, CMV Ad169. The assay is classed as cell-based, human cytomegalovirus. As to conditions: Table 1; HF cells.
Assay [6] has as its system RSV. It is filed as in vivo, cotton rats. As to conditions: EXPT 3, Lung/Plaque.
In assay [7] the test system is RSV. The assay is classed as in vivo, cotton rats. As to conditions: EXPT 3, Lavage/Plaque.
Setting [8] is: i.n. d 0 15 mg/k, d 1,2,3 30 mg/k.
[9] abbreviates: EXPT 3, i.n. 30 mg/k d 1,2,3, Lavage/CPE.
[10] abbreviates: EXPT 3, i.n. d 0 15 mg/k, d 1 30 mg/k, Lavage/CPE.
[11] abbreviates: EXPT 3, i.n. d 0 15 mg/k, d 1,2,3 30 mg/k, Lavage/CPE.
[12] abbreviates: EXPT 3, i.p. 30 mg/k d 1,2,3, Lavage/CPE.

“And” between values parts separate entries of the source, which are not always exact repeats. Equal values may be shown once. Where a name gives a salt, the structure may show the parent alone. Read-outs that look alike come from different tables or passages of the source.

For the compound “4,4'-Bis[4-chloro-6-di[4-amino-N'-[3-aminophenyl-N,N-bis(2-carbamoylethyl)sulfonylimino]-benzamide]-1,3,5-triazin-2-ylamino]-stilbene-2,2'-disulfonic acid, disodium salt [Example 24]”, the “IC50 in growth inhibition RSV/VERO” value in the assay with RSV (A2) [1] (vero cells) was determined as 50 µg/mL.

In the assay on RSV A2 (rat, in vivo), `NC(=O)c1ncn([C@@H]2O[C@H](CO)[C@@H](O)[C@H]2O)n1` [Ribavirin, reference compound] returned a Fold red. of 0.8 log10 and a Mean titer of 3.3 log10/g lung.

Regarding `NC(=O)CCN(CCC(N)=O)S(=O)(=O)c1cccc(Nc2nc(Cl)nc(Nc3ccc(/C=C/c4ccc(Nc5nc(Cl)nc(Nc6cccc(S(=O)(=O)N(CCC(N)=O)CCC(N)=O)c6)n5)cc4S(=O)(=O)O)c(S(=O)(=O)O)c3)n2)c1` [Example 8, 4,4'-Bis[4-chloro-6-[3-aminophenyl-N,N-bis(2-carbamoylethyl)sulfonylimino]-1,3,5-triazin-2-ylamino]-stilbene-2,2'-disulphonic acid, disodium salt], the IC50 in the assay on CMV (Ad169) [2] is greater than 50 µg/mL; in the assay with RSV (A2) [1] (HF cells, read-out: IC50 in growth inhibition RSV/HF), greater than 50 µg/mL; in the assay with RSV (A2) [1] (vero cells, read-out: IC50 in growth inhibition RSV/VERO), greater than 50 µg/mL.

With `NC(=O)CCN(CCC(N)=O)S(=O)(=O)c1cccc(Nc2nc(Nc3cccc(S(=O)(=O)N(CCC(N)=O)CCC(N)=O)c3)nc(Nc3ccc(/C=C/c4ccc(Nc5nc(Nc6cccc(S(=O)(=O)N(CCC(N)=O)CCC(N)=O)c6)nc(Nc6cccc(S(=O)(=O)N(CCC(N)=O)CCC(N)=O)c6)n5)cc4S(=O)(=O)O)c(S(=O)(=O)O)c3)n2)c1` [Example 1, 4,4'-Bis[4.6-di[3-aminophenyl-N,N-bis(2-carbamoyl-ethyl)sulfonylimino]-1,3,5-triazin-2-ylamino]-stilbene-2,2'-disulfonic acid, disodium salt], the “inhibition of syncytium formation” value in assay [3] was “inhibit syncytium formation”. Moreover, the viral protein synthesis result in the assay on viral protein synthesis (10 μg/ml added immediately after virus adsorption and before raising temperature to 37° C.) was “fully prevented”. The viral protein production entry in the assay with viral protein synthesis (added after only 5 minutes incubation at 37° C.) is given as “unimpeded”. Moreover, the “inhibition of RSV in vivo (summary)” value in the assay on RSV A2 is reported as “inhibit RSV in vivo”. In the assay on RSV A2 (rat, in vivo, disodium salt), the Mean titer was 2.8 log10/g lung and 1.73 log10/g lung and 3.43 log10/g lung.

Take “9.9-Dioxo-2,7-Bis[4,6-di[3-aminophenyl-N,N-bis(2-carbamoylethyl)sulfonylimino]-1,3,5-triazin-2-ylamino]-dibenzothiophen-3.6-disulfonic acid, disodium salt [Example 23]”: the “IC50 in plaque assay RSV/VERO” value in the assay on RSV (A2) [4] stood at 8 µg/mL. Further, in the assay with CMV (Ad169) [5], the “IC50 in plaque assay CMV/HF” value was 20 µg/mL.

“4,4'-Bis[4,6-di[4-amino-N'-[3-aminophenyl-N,N-bis(2-hydroxyethyl)sulfonylimino]-benzensulfoamide]-1,3,5-triazin-2-ylamino]-stilbene-2,2'-disulfonic acid, disodium salt [Example 25]”: the “IC50 in growth inhibition RSV/VERO” value in the assay on RSV (A2) [1] (vero cells) turned out to be 30 µg/mL.

For “4-[4.6-Di[3-aminophenyl-N,N-bis(2-carbamoylethyl)sulfonylimino]-1,3,5-triazin-2-ylamino]-4'-(4-[3-aminophenyl-N,N-bis(2-carbamoylethyl)sulfonylimino]- 6-[3-aminophenyl-N,N bis(3-propionic acid)-1,3,5-triazin-2-ylamino]-stilbene-2,2'-disulphonic acid, disodium salt [Example 10]”, the “IC50 in growth inhibition RSV/HF” value in the assay on RSV (A2) [1] (HF cells) is less than 3 µg/mL. Moreover, the “IC50 in growth inhibition RSV/VERO” value with RSV (A2) [1] (vero cells) came out at 0.7 µg/mL.

Turning to `NC(=O)CCN(CCC(N)=O)S(=O)(=O)c1cccc(Nc2nc(Nc3cccc(S(=O)(=O)N(CCC(N)=O)CCC(N)=O)c3)nc(Nc3ccc(-c4ccc(Nc5nc(Nc6cccc(S(=O)(=O)N(CCC(N)=O)CCC(N)=O)c6)nc(Nc6cccc(S(=O)(=O)N(CCC(N)=O)CCC(N)=O)c6)n5)cc4S(=O)(=O)O)c(S(=O)(=O)O)c3)n2)c1` [Example 4, 4,4'-Bis[4,6-di[3-aminophenyl-N,N-bis(2-carbamoyl-ethyl)sulfonylimino]-1,3,5-triazin-2-ylamino]-biphenyl-2,2'-disulfonic acid, disodium salt], the Fold red. turned out to be 1.18 log10 in the assay with RSV [6] (i.n. 30 mg/k d 1,2,3); 2.23 log10 in the assay on RSV [6] (i.n. d 0 15 mg/k, d 1 30 mg/k); 2.3 log10 in the assay on RSV [6] (setting [8]); 0.26 log10 in the assay with RSV [6] (i.p. 30 mg/k d 1,2,3); 1.2 log10 in the assay with RSV [7] (i.n. 30 mg/k d 1,2,3); 2.03 log10 in the assay on RSV [7] (i.n. d 0 15 mg/k, d 1 30 mg/k). In addition, the Fold red. in the assay on RSV [7] (setting [8]) was 2.04 log10; with RSV [7] (i.p. 30 mg/k d 1,2,3) it was 0.09 log10; in the assay on RSV A2 (setting [9]), 2.51 log10; in the assay with RSV A2 (setting [10]), 2.52 log10; in the assay with RSV A2 (setting [11]) it was 2.13 log10; with RSV A2 (setting [12]), 0 log10. Also, in the assay with RSV A2 (rat, in vivo), the Fold red. worked out at 1.63 log10. In addition, the Mean titer with RSV [6] (i.n. 30 mg/k d 1,2,3) stood at 3.37 log10/g lung; in the assay on RSV [6] (i.n. d 0 15 mg/k, d 1 30 mg/k), 2.32 log10/g lung; in the assay on RSV [6] (setting [8]), 2.25 log10/g lung; in the assay with RSV [6] (i.p. 30 mg/k d 1,2,3) it was 3.92 log10/g lung; with RSV [7] (i.n. 30 mg/k d 1,2,3) it was 3.09 log10/g lung; in the assay on RSV [7] (i.n. d 0 15 mg/k, d 1 30 mg/k), 2.26 log10/g lung. Besides, the Mean titer was determined as 2.25 log10/g lung in the assay with RSV [7] (setting [8]); 4.1 log10/g lung in the assay with RSV [7] (i.p. 30 mg/k d 1,2,3); 1.67 log10/g lung in the assay with RSV A2 (setting [9]); 1.66 log10/g lung with RSV A2 (setting [10]); 2.05 log10/g lung with RSV A2 (setting [11]); 4.18 log10/g lung in the assay on RSV A2 (setting [12]). In addition, the Mean titer in the assay with RSV A2 (rat, in vivo) was 2.05 log10/g lung. Further, in assay [3], the “inhibition of syncytium formation” value was “inhibit syncytium formation”. Besides, the “inhibition of RSV in vivo (summary)” value in the assay on RSV A2 is recorded as “inhibit RSV in vivo”.
